Source: patent US7989629B2, “3-(4-{ [4-(4-{ [3-(3, 3-dimethyl-1-piperidinyl) propyl] oxy} phenyl)-1-piperidinyl] carbonyl}-1-naphthalenyl) propanoic or propenoic acid as H1 and H3 receptor antagonists for the treatment of inflammatory and/or allergic disorders” (Glaxo Group Limited, priority 2005, dated 2011)

Assays:
histamine H3 receptor = histamine H3 receptor (Homo sapiens, UniProt Q9Y5N1); assay: Histamine H3 functional antagonist assay (GTPγS); format: biochemical; conditions: functional antagonism, histamine at EC80; read-out: average pKi (pKb) at H3 (converted)
Sequence of histamine H3 receptor (Q9Y5N1 whole entry, species assumed): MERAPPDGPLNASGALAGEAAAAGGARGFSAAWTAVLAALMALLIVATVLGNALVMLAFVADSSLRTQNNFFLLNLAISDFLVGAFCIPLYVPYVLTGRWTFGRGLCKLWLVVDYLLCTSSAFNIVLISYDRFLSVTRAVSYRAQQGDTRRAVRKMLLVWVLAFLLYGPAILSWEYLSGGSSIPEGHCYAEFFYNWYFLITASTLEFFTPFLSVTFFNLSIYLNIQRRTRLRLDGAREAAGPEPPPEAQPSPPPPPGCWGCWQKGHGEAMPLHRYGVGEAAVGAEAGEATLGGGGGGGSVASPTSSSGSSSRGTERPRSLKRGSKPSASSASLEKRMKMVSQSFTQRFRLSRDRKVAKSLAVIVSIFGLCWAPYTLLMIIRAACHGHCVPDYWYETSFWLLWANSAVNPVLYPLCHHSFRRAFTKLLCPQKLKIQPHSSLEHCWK
Excerpt: 2. H3 Receptor Cell Line Generation, Membrane Preparation and Functional GTPγS Assay Protocols
Generation of Histamine H3 Cell Line
The histamine H3 cDNA is isolated from its holding vector, pcDNA3.1 TOPO (InVitrogen), by restriction digestion of plasmid DNA with the enzymes BamH1 and Not-1 and ligated into the inducible expression vector pGene (InVitrogen) digested with the same enzymes. The GeneSwitch™ system (a system wherein transgene expression is switched off in the absence of an inducer and switched on in the presence of an inducer) is performed as described in U.S. Pat. Nos. 5,364,791; 5,874,534; and 5,935,934. […]
10-14 days post selection, 10 nM Mifepristone (InVitrogen) is added to the culture medium to induce the expression of the receptor. […] Receptor bound antibody is detected by incubation of the cells for 60 min on ice with a goat anti rabbit antibody, conjugated with Alexa 488 fluorescence marker (Molecular Probes). Following two further washes with Sorting Medium, cells are filtered through a 50 μm Filcon™ (BD Biosciences) and are then analysed on a FACS Vantage SE Flow Cytometer fitted with an Automatic Cell Deposition Unit, Control cells are non-induced cells treated in a similar manner. […]

Rat pharmacokinetics = format: in vivo
Procedure: Compounds are dosed to male CD Sprague Dawley rats by single intravenous or oral administration at a nominal dose level of 1 mg/kg and 3 mg/kg respectively. Compounds are formulated in 5% DMSO/45% PEG200/50% water. An intravenous profile is obtained by taking serial or terminal blood samples at 0.083, 0.25, 0.5, 1, 2, 4, and 7 hours post dose (for some studies 12 and 24 hour samples may be taken). An oral profile is obtained by taking serial or terminal blood samples at 0.25, 0.5, 1, 2, 4, 7 and 12 hours post dose (for some studies 24 and 30 hour samples may be taken). Blood samples are taken directly into heparinised tubes. Blood samples are prepared by protein precipitation and subjected to quantitative analysis by LC-MS/MS using compound-specific mass transitions. Drug concentration-time profiles are generated and non-compartmental PK analysis used to generate estimates of half-life, clearance, volume of distribution and oral bioavailability.

human H1 receptor [1] = molecular target: T1, human H1 receptor (Homo sapiens, UniProt P35367); assay: Histamine H1 functional antagonist assay (FLIPR): determination of functional pKi values; format: cell-based; conditions: functional antagonism, CHO cells, histamine at EC80; read-out: average pKi (pKb) at H1 (converted)
T1 sequence (P35367 whole entry): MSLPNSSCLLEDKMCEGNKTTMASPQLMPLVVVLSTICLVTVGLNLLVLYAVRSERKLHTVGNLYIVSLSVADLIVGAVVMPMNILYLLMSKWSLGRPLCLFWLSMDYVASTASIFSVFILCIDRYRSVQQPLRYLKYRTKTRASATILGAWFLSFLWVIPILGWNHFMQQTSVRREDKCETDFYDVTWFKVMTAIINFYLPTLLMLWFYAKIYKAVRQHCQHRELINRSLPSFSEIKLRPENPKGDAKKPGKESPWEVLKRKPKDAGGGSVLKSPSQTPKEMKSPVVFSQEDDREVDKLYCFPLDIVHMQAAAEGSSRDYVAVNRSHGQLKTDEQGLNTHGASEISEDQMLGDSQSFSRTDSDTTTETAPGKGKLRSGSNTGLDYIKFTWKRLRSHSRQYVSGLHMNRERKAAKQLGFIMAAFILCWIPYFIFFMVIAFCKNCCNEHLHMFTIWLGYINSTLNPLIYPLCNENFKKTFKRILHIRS
Excerpt: H1 Receptor Cell Line Generation and FLIPR Assay Protocol
1. Generation of Histamine H1 Cell Line
(§1) The human H1 receptor may be cloned using known procedures described in the literature [Biochem. Biophys. Res. Commun., 201(2):894 (1994)]. Chinese hamster ovary (CHO) cells stably expressing the human H1 receptor may be generated according to known procedures described in the literature [Br. J. Pharmacol., 117(6):1071 (1996)].
Histamine H1 Functional Antagonist Assay: Determination of Functional pKi Values […]
10 μl of test compound, diluted to the required concentration in Tyrodes buffer+probenecid (or 10 μl Tyrodes buffer+probenecid as a control) is added to each well and the plate incubated for 30 min at 37° C., 5% CO2. The plates are then placed into a FLIPR™ (Molecular Devices, UK) to monitor cell fluorescence (λex=488 nm, λEM=540 nm) in the manner described in Sullivan et al., (In: Lambert D G (ed.), Calcium Signaling Protocols, New Jersey: Humana Press, 1999, 125-136) before and after the addition of 10 μl histamine at a concentration that results in the final assay concentration of histamine being EC80.
Functional antagonism is indicated by a suppression of histamine induced increase in fluorescence, as measured by the FLIPR™ system (Molecular Devices). By means of concentration effect curves, functional affinities are determined using standard pharmacological mathematical analysis.

Dog pharmacokinetics = format: in vivo; conditions: combined data for Example 1 and 3; for half-life / bioavailability: male, Beagle, whole blood; for bioavailability: po, 2 mg/kg
Procedure: Compounds are dosed to male Beagle dogs by single intravenous or oral administration at a nominal dose level of 1 mg/kg and 2 mg/kg respectively. The study is carried out according to a crossover design such that the same dog is used for both dosing events and the dosing events occurred 1 week apart. Compounds are formulated in 5% DMSO/45% Peg200/50% water. An intravenous profile is obtained by taking serial blood samples at 0.083, 0.25, 0.5, 0.75, 1, 2, 4, 6 and 12 hr post dose (for some studies 24 hour samples may be taken). An oral profile is obtained by taking serial blood samples at 0.25, 0.5, 0.75, 1, 2, 4, 6, 12 and 24 hr post dose. Blood samples are taken directly into heparinised tubes. Blood samples are prepared by protein precipitation and subjected to quantitative analysis by LC-MS/MS using compound-specific mass transitions. Drug concentration-time profiles are generated and non-compartmental PK analysis used to generate estimates of half-life, clearance, volume of distribution and oral bioavailability.

histamine-induced wheals = assay: In vivo anti-inflammatory wheal and flare model; design: species or system guinea pig
Procedure: In Vivo Anti-Inflammatory Wheal and Flare Model
Male Dunkin-Hartley guinea pigs 500 g-1 kg are dosed with test compound or vehicle using a 1 ml syringe into the oral cavity (0.5 ml/kg p.o.), or via a marginal ear vein (0.33 ml/kg i.v.). Compounds are formulated in 5% DMSO/45% PEG200/50% water.
Either 2 hr after oral or 15 min after intravenous compound administration, guinea pigs are anaesthetised with isoflurane (5%, […] O2), and receive Evans blue solution (2% in saline), 0.33 ml/kg i.v. via a marginal ear vein.
Immediately after Evans blue administration, and whilst still under isoflurane, animals are placed in a prone position, and an area of the back shaved. […]
Following histamine challenge, the animals are allowed to recover from anaesthesia and, 30 minutes later are euthanased with an i.p. overdose of pentobarbitone. The dorsal skin is carefully removed and wheal areas (stained blue) measured from the inner skin surface by taking two perpendicular diameters using engineer's calipers, and calculating the average radius. This value is used to calculate the area of each wheal, and the mean value of all histamine-induced wheals is subsequently calculated for each animal. […]
Dose-response curves are constructed for each test compound and ID50 values may be determined for each route of administration (oral and intravenous).

human H1 receptor [2] = molecular target: T1, human H1 receptor; assay: Histamine H1 functional antagonist assay (FLIPR): determination of antagonist pA2; format: cell-based
Procedure: as §1
Histamine H1 Functional Antagonist Assay: Determination of Antagonist pA2
The histamine H1 receptor expressing CHO cells is seeded into non-coated black-walled clear bottom 96-well tissue culture plates as described above. […]
The plates are then placed into a FLIPR™ (Molecular Devices, UK) to monitor cell fluorescence (λex=488 nm, λEM=540 nm) in the manner described in Sullivan et al., (In: Lambert D G (ed.), Calcium Signaling Protocols, New Jersey: Humana Press, 1999, 125-136) before and after the addition of 50 μl histamine over a concentration range of 1 mM-0.1 nM. […] The antagonist pA2 is calculated using the following standard equation: pA2=log(DR−1)−log [B] where DR=dose ratio, defined as EC50antagonist-treated/EC50control and [B]=concentration of antagonist.

| SMILES | Ki (histamine H3 receptor) | plasma clearance (Rat pharmacokinetics) | half-life (Rat pharmacokinetics; male, CD Sprague Dawley, whole blood, 1 mg/kg, IV route) | bioavailability (Rat pharmacokinetics; male, CD Sprague Dawley, whole blood, po, 3 mg/kg) | Ki (human H1 receptor [1]) | plasma clearance (Dog pharmacokinetics) | half-life (Dog pharmacokinetics) | bioavailability (Dog pharmacokinetics) | ID50 in the wheal and flare model (histamine-induced wheals; i.v.) | ID50 in the wheal and flare model (histamine-induced wheals; oral) | Kb (human H1 receptor [2]) |
| --- | --- | --- | --- | --- | --- | --- | --- | --- | --- | --- | --- |
| CC1(C)CCCN(CCCOc2ccc(C3CCN(C(=O)c4ccc(CCC(=O)O)c5ccccc45)CC3)cc2)C1 [Example 1, 3-(4-{[4-(4-{[3-(3,3-dimethyl-1-piperidinyl)propyl]oxy}phenyl)-1-piperidinyl]carbonyl}-1-naphthalenyl)propanoic acid, formic acid (1:1)] | ~39.8 nM | low | 240 to 300 min | ~59% | ~15.8 nM | low | ~180 min | ~60% | – | – | – |
| CC1(C)CCCN(CCCOc2ccc(C3CCN(C(=O)c4ccc(CCC(=O)O)c5ccccc45)CC3)cc2)C1.Cl [Example 3, 3-(4-{[4-(4-{[3-(3,3-dimethyl-1-piperidinyl)propyl]oxy}phenyl)-1-piperidinyl]carbonyl}-1-naphthalenyl)propanoic acid, hydrochloride salt] | ~50.1 nM | – | – | – | ~12.6 nM | low | ~180 min | ~60% | about 0.6 mg/Kg | about 2.8 mg/Kg | ~7.94 nM |
